{"source": "patent US12076307B2", "about": "“Compositions for prevention or treatment of acute radiation syndrome and other radiation exposure” (priority 2017, dated 2024)", "key": {"[1]": {"tested_on": "ICR mice", "assay": "CNS function in mice (Irwin test)", "assay_type": "in vivo, mouse", "settings": "single oral doses up to 2000 mg/kg; 4 hrs"}, "[2]": {"assay": "Safety assessment in clinical trials", "assay_type": "in vivo, human", "experimental": "AEs that were observed involved mild symptoms unrelated to EC-18 administration. […] In the clinical studies with pancreatic cancer patients, there were no SAEs associated with EC-18 administered twice daily (BID) for a total of 1000 mg/day."}, "[3]": {"assay": "In vitro metabolite screening, dog liver microsomes", "assay_type": "in vitro ADME", "settings": "N=2", "experimental": "(§1) [^14C]EC-18 or the positive control (7-ethoxycoumarin; 7-EC) reacted with microsomes prepared from hepatocytes of rats, dogs, monkeys, and humans, with or without cofactors, for 60 and 120 min. Then, the residual EC-18 concentration over time was measured by LC-RID ([^14C]EC-18) or LC-MS/MS (7-EC) (FIG. 63 and FIG. 64).\n(§2) The LC-RID chromatographic profiles of radioactive metabolites produced in the 2-hr incubation reaction mixtures of the same test systems A, B, and C used to assess the metabolic and non-metabolic elimination rates of EC-18 were compared to the LC-UV chromatographic profiles of the synthetic reference material. […] The relative radioactivity of EC-18 accounted for 42-67% of total radioactivity. The peaks designated as M2, M3, and M5 were also determined in all species, and their relative radioactivity accounted for 12-34% of total radioactivity. The peaks of M4 and M6 were determined in monkeys and humans. M1 was abundantly detected in all species, but it was assumed to be a peak of early elution. The LC-UV chromatograms of reaction mixtures in each test system (FIGS. 65A-65C) and the relative radioactivity of the screened metabolites are shown in Table 25."}, "[4]": {"target": "CYP2C19 (Homo sapiens, UniProt P33261)", "sequence (P33261 whole entry)": "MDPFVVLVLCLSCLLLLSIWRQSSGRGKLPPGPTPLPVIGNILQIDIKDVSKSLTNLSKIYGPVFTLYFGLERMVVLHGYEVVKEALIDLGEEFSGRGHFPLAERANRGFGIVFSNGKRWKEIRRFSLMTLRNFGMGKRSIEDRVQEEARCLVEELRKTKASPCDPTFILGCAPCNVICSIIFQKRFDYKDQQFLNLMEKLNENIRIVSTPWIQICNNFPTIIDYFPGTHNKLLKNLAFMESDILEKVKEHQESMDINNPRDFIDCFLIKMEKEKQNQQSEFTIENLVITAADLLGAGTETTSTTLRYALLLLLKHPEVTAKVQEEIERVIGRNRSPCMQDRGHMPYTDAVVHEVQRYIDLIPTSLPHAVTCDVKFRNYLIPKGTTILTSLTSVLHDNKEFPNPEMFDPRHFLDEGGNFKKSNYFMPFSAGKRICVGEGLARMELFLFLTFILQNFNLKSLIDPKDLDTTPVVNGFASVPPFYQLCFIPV", "assay": "CYP enzyme inhibition in human liver microsomes, CYP2C19", "source_text": "(§3) CYP1A2, CYP2C9, CYP2C19, CYP2D6, and CYP3A4 are the CYP subfamily, which plays a critical role in the metabolism of most drugs."}, "[5]": {"target": "T1, CYP1A2 (Homo sapiens, UniProt P05177)", "T1 construct": "incubated with human liver microsomes; from tissue; host or cells: human liver microsomes", "T1 sequence (P05177 whole entry)": "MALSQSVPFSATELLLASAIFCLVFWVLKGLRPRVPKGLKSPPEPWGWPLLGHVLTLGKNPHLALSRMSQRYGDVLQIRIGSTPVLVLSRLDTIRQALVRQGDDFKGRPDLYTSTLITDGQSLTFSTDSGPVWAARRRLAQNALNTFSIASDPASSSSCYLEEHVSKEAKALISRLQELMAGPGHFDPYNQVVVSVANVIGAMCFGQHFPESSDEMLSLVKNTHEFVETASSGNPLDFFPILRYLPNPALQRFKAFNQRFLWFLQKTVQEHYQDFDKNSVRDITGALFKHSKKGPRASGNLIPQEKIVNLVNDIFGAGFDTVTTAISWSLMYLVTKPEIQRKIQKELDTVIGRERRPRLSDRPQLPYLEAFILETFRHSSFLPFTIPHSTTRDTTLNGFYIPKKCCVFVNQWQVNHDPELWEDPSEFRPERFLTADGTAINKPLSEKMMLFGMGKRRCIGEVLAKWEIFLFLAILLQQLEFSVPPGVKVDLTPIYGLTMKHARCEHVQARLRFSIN", "assay": "in vitro", "assay_type": "in vitro ADME", "settings": "human, microsomes"}, "[6]": {"assay": "In vitro metabolite screening, rat liver microsomes", "assay_type": "in vitro ADME", "settings": "N=2", "experimental": "as §1, §2"}, "[7]": {"assay": "In vitro metabolic stability / metabolite screening, statements over all species", "assay_type": "in vitro ADME, rat, dog, monkey, human", "experimental": "as §1, §2"}, "[8]": {"tested_on": "Balb/c mice, 6.11 Gy TBI", "assay": "Structural analog / calorie effect study: EC-18, PLH, olive oil in 6.11 Gy ARS model", "assay_type": "in vivo, mouse", "settings": "250 mg/kg daily", "experimental": "Similarly, a structural analog efficacy study was conducted to identify the optimally functional molecule in the ARS murine model. The study was performed with the structural analog in which the acetyl group in EC-18 is replaced with a hydroxyl group (yielding palmitic linoleic hydroxyl glycerol, PLH) in 20 Balb/c mice (10 female and 10 male) per group. Mice were irradiated with TBI of 6.11Gy at day 0 and 250 mg/kg of EC-18 or PLH were given daily in-life.\nThe purpose of this study was to assess whether extra calories of EC-18 contribute to the enhanced survival in mice after exposure to a whole-body sublethal dose of γ-radiation. The study was performed with the structural analog in which the acetyl group in EC-18 is replaced with a hydroxyl group (yielding PLH) in a total of 100 BALB/c mice ([…]; 20 animals per study group) aged at 11 weeks. Mice were irradiated with TBI of 6.11Gy at day 0 and the same dosage (250 mg/kg) of EC-18, PLH, or olive oil (vehicle control) were given daily in-life."}, "[9]": {"tested_on": "BALB/c mice, 6.11 Gy γ-radiation TBI", "assay": "LD70/30 (6.11 Gy) ARS model: survival, life span, body weight, EC-18 10/50/250 mg/kg", "assay_type": "in vivo, mouse", "settings": "for improvement of survival vs control group / ≥10% Body Weight Loss, % / ≥20% Body Weight Loss, % / Average life span / Median survival / No. of mice that survived/total / Survivability / Survival: 6.11 Gy; for No. of mice that survived/total / Survivability / Survival: 30 days", "experimental": "For the experiments to determine survival rate following LD70/30 dose 6.11 Gy of γ-irradiation (TBI, ^60Co, 0.833Gy min-1), mice were grouped 20 (10 males and 10 females) per treatment cohorts; γ-radiation only cohort (positive control), γ-radiation with EC-18 10 mg/kg cohort, γ-radiation with EC-18 50 mg/kg cohort, and γ-radiation with EC-18 250 mg/kg cohort. EC-18 (Enzychem Lifesciences, Jaecheon, Republic of Korea) was suspended in PBS and orally administrated once a day, starting 1 day after irradiation. The positive control group was administrated PBS. The survival and body weight of the animals were recorded daily for 30 days.\nAll data are presented as the mean t standard deviation (SD). A paired Log rank (Mantel-Cox) test of survival curve was applied to estimate the significance on survival rate and to compare the duration of neutropenia between control and EC-18-treated cohorts. Average life span was calculated as the sum of the life span for all mice/total number of mice. For comparison of the statistical differences of more than two groups, one-way ANOVA test was used. All other statistical analyses were performed using a Student's paired t test and p values<0.05 were considered statistically significant.\nThe purpose of this study was to investigate the dose-effect of EC-18 on increasing the survival in mice after exposure to γ-radiation to the entire body. Eleven-week-old male and female BALB/c mice (10 females and 10 males; 20 animals per study group) were tested for the LD70/30 study. This study is consisted of 4 experimental groups; γ-radiation only group, and γ-radiation with EC-18 treatment groups at 10, 50, or 250 mg/kg."}, "[10]": {"target": "CYP2D6 (Homo sapiens, UniProt P10635)", "sequence (P10635 whole entry)": "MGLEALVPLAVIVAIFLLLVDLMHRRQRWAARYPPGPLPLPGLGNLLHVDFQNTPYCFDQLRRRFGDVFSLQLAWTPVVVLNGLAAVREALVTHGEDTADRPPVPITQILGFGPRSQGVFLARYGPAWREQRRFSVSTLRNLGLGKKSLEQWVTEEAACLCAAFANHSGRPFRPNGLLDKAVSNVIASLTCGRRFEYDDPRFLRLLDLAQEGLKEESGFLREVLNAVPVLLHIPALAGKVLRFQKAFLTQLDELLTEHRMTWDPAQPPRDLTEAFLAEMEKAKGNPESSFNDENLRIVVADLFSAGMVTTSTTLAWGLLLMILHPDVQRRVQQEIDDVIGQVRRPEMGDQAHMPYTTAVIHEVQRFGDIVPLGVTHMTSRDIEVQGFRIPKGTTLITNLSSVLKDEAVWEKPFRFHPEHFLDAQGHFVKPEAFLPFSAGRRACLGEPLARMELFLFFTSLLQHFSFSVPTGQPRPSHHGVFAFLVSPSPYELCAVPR", "assay": "CYP enzyme inhibition in human liver microsomes, CYP2D6", "source_text": "as §3"}, "[11]": {"settings": "A (NADPH added), [14C]EC-18 2 hrs"}, "[12]": {"settings": "B (NADPH, PAPS, UDPGA added), 2 hrs"}, "[13]": {"settings": "EC-18 10 mg/kg oral daily from day 1, 10 mg/kg"}, "[14]": {"settings": "EC-18 50 mg/kg oral daily from day 1, 50 mg/kg"}, "[15]": {"settings": "EC-18 250 mg/kg oral daily from day 1, 250 mg/kg"}}, "data": [{"smiles": "CCCCC/C=C\\C/C=C\\CCCCCCCC(=O)OC(COC(C)=O)COC(=O)CCCCCCCCCCCCCCC", "note": "(stereo not drawn) [EC-18, 1-palmitoyl-2-linoleoyl-3-acetylglycerol]", "values": [{"measurement": "CNS function (Irwin test)", "setting": "[1]", "value": "did not affect the CNS function"}, {"measurement": "adverse events", "setting": "[2]; five clinical trials", "value": "no adverse events (AEs) that could be considered serious or severe"}, {"measurement": "SAEs associated with EC-18", "setting": "[2]; pancreatic cancer patients, BID, total 1000 mg/day", "value": "no SAEs"}, {"measurement": "accumulation", "setting": "[2]; single- and multiple-dose 500 to 4000 mg", "value": "no accumulation with repeated-dosing was observed"}, {"measurement": "Mean Peak Area in LC-RID", "setting": "[3]; [11]", "value": 52.6, "unit": "%"}, {"measurement": "Mean Peak Area in LC-RID", "setting": "[3]; [12]", "value": 54.3, "unit": "%"}, {"measurement": "Mean Peak Area in LC-RID", "setting": "[3]; C (no cofactor added), 2 hrs", "value": 56.6, "unit": "%"}, {"measurement": "IC50", "setting": "[4]", "value": 83.6, "unit": "µM"}, {"measurement": "IC50", "setting": "[5]", "value": 24400, "unit": "µM"}, {"measurement": "Mean Peak Area in LC-RID", "setting": "[6]; [11]", "value": 61.8, "unit": "%"}, {"measurement": "Mean Peak Area in LC-RID", "setting": "[6]; [12]", "value": 51.9, "unit": "%"}, {"measurement": "Mean Peak Area in LC-RID", "setting": "[6]; C (no cofactor added), 2 hrs", "value": 58.8, "unit": "%"}, {"measurement": "relative radioactivity of total radioactivity", "setting": "[7]; 2-hr incubation, all species and test systems", "value": "42-67%"}, {"measurement": "residual EC-18 concentration relative to initial concentration", "setting": "[7]; 1 hr, test systems A, B, C, all species", "value": "≥ 50", "unit": "%"}, {"measurement": "order of residual EC-18 concentration", "setting": "[7]; 2 hrs", "value": "human>rat and dog>monkey"}, {"measurement": "residual EC-18 concentration", "setting": "[7]; 2 hrs, all test systems, all species except monkeys", "value": "≥ 50", "unit": "%"}, {"measurement": "No. of mice that survived/total", "setting": "[8]", "value": "14/20"}, {"measurement": "Survival", "setting": "[8]", "value": 70, "unit": "%"}, {"measurement": "Survival time of decedents, Mean ± SEM", "setting": "[8]", "value": "23.7 ± 1.4", "unit": "days"}, {"measurement": "Survival time of decedents, Median", "setting": "[8]", "value": 23.5, "unit": "days"}, {"measurement": "body weight loss induced by irradiation", "setting": "[8]", "value": "effectively prevented and rapidly recovered weight loss"}, {"measurement": "increase in survival vs control and PLH-treated group", "setting": "[8]", "value": 2, "unit": "fold"}, {"measurement": "survival compared to control group", "setting": "[8]", "value": "significant increase"}, {"measurement": "radiation-induced weight loss vs positive control cohort", "setting": "[9]; 250 mg/kg, from the 18th day after irradiation to the end", "value": "significantly reduced"}, {"measurement": "improvement of survival vs control group", "setting": "[9]; 50 mg/kg daily", "value": 2, "unit": "fold"}, {"measurement": "improvement of survival vs control group", "setting": "[9]; 250 mg/kg daily", "value": 4, "unit": "fold"}, {"measurement": "≥10% Body Weight Loss, %", "setting": "[9]; EC-18 10 mg/kg", "value": 85, "unit": "%"}, {"measurement": "≥20% Body Weight Loss, %", "setting": "[9]; EC-18 10 mg/kg", "value": 70, "unit": "%"}, {"measurement": "Average life span", "setting": "[9]; [13]", "value": 22.3, "unit": "days"}, {"measurement": "Median survival", "setting": "[9]; [13]", "value": 17, "unit": "days"}, {"measurement": "No. of mice that survived/total", "setting": "[9]; [13]", "value": "4/20"}, {"measurement": "Survivability / Survival", "setting": "[9]; [13]", "value": 40, "unit": "%"}, {"measurement": "≥10% Body Weight Loss, %", "setting": "[9]; EC-18 50 mg/kg", "value": 55, "unit": "%"}, {"measurement": "≥20% Body Weight Loss, %", "setting": "[9]; EC-18 50 mg/kg", "value": 35, "unit": "%"}, {"measurement": "Average life span", "setting": "[9]; [14]", "value": 19.3, "unit": "days"}, {"measurement": "Median survival", "setting": "[9]; [14]", "value": 20, "unit": "days"}, {"measurement": "No. of mice that survived/total", "setting": "[9]; [14]", "value": "8/20"}, {"measurement": "Survivability / Survival", "setting": "[9]; [14]", "value": 20, "unit": "%"}, {"measurement": "≥10% Body Weight Loss, %", "setting": "[9]; EC-18 250 mg/kg", "value": 15, "unit": "%"}, {"measurement": "≥20% Body Weight Loss, %", "setting": "[9]; EC-18 250 mg/kg", "value": 15, "unit": "%"}, {"measurement": "Average life span", "setting": "[9]; [15]", "value": 17.9, "unit": "days"}, {"measurement": "Median survival", "setting": "[9]; [15]", "value": 30, "unit": "days"}, {"measurement": "No. of mice that survived/total", "setting": "[9]; [15]", "value": "16/20"}, {"measurement": "severe weight loss", "setting": "[9]; two higher doses (50 and 250 mg/kg)", "value": "significantly prevented severe weight loss"}, {"measurement": "IC50", "setting": "[10]", "value": 67.9, "unit": "µM"}]}]}
